Results reported in patent US20100021918A1, “METHOD FOR ASSAYING ACTION OF ANTITUMOR AGENT USING SPLICING DEFECTS AS INDEX” (Eisai R&D Management Co., Ltd., priority 2007, published 2010).

Test system: peripheral blood mononuclear cells (PBMC)
Test: qPCR of precursor gene (pre-mRNA) expression in PBMC, Table 2
Format: cell-based, human
Details: three hours
From the text: Since it is not easy to obtain a cancer tissue clinically, the measurement of the marker in hemocytes readily obtainable in peripheral blood would be more useful. It was then examined whether the marker gene obtained in cancer cells could change in peripheral blood mononuclear cells in a similar manner as observed in the cancer cells. Specifically peripheral blood was taken from three normal individuals (volunteers) and peripheral blood mononuclear cells were purified and treated with (8E,12E,14E)-7-((4-cycloheptylpiperazin-1-yl)carbonyl)oxy-3,6,16,21-tetrahydroxy-6,10,12,16,20-pentamethyl-18,19-epoxytricosa-8,12,14-trien-11-olide for three hours, followed by measurement of change in expression of the precursor gene (pre-mRNA) by qPCR.
Ficoll-Paque PLUS solution (Amersham, 17-1440-02) was slowly added to the blood taken (with heparin added) from healthy individuals to form a layer underneath the blood (15 mL of Ficoll-Paque PLUS solution was added to 25 mL of blood). After the mixture was centrifuged at 1500 rpm for 30 min, the upper part containing platelets was removed and then a layer containing mononuclear cells was transferred to another tube. The cells were suspended in PBS and centrifuged at 1500 rpm for 5 min, followed by removal of the supernatant. After these steps were repeated twice, the PBMC was suspended in RPMI1640 (containing 10% FBS, penicillin, and streptomycin) and the number of the cells was then counted.
PBMC was suspended in RPMI1640 medium (containing 10% FBS, penicillin, and streptomycin) to 5×10^6 cells/ml and 1 ml of the suspension was plated per well of a 24-well plate. Immediately, 111 μl of 10 times-concentrated (8E,12E,14E)-7-((4-cycloheptylpiperazin-1-yl)carbonyl)oxy-3,6,16,21-tetrahydroxy-6,10,12,16,20-pentamethyl-18,19-epoxytricosa-8,12,14-trien-11-olide was added to the well (six wells per each concentration tested). The cells were then cultured in an incubator with 5% carbon dioxide gas at 37° C. Three hours later, the supernatant was collected and centrifuged at 1500 rpm for five minutes. TRI reagent (SIGMA) (1 ml) was added to each well of the plate from which the supernatant was removed to harvest the cells, which was added to the centrifuged pellet to dissolve. RNA was purified in accordance with the protocol of TRI reagent. RNA was further purified using RNeasy (QIAGEN) and, in accordance with the protocol, DNaseI was added to the samples during the procedure. Absorbance at 260 nm was measured to quantify an amount of RNA.
RNA was prepared to 30 ng/μl and cDNA was synthesized using TaqMan Reverse Transcription Reagents (Applied Biosystems). For the expression level of pre-mRNA of ID1, amplification was carried out by using TaqMan Universal PCR Master Mix (Applied Biosystems) with TaqMan Gene Expression Assays (Hs00704053_s1, Applied Biosystems) as a probe. For the expression level of pre-mRNA of DNAJB1, BZW1, NUP54, RIOK3, CDKN1B, STK17B, ADRM1, EIF4A1, FOXK2, GNB2L1, HSPA9B, HSPH1, KLHL18 and VIL2, reagents were prepared in accordance with each protocol by using POWER SYBR GREEN PCR MASTER MIX (Applied Biosystems) and primers with the sequence below (Invitrogen), and the expression level was measured with ABI7900 (Applied Biosystems). 18S rRNA was measured by both the TaqMan and SYBR methods. The expression level of 18S r RNA was measured with Hs99999901_s1 (Applied Biosystems) as primers for TaqMan and with 18S primers included in TaqMan Ribosomal RNA control reagents (4308329: Applied Biosystems) as primers for SYBR. Measured values were corrected using the expression level of 18S rRNA as an internal control. The expression level of each gene was calculated with the expression level in the cells treated without (8E,12E,14E)-7-((4-cycloheptylpiperazin-1-yl)carbonyl)oxy-3,6,16,21-tetrahydroxy-6,10,12,16,20-pentamethyl-18,19-epoxytricosa-8,12,14-trien-11-olide as 1.

## CCC(O)C(C)C1OC1CC(C)(O)/C=C/C=C(\C)C1OC(=O)CC(O)CCC(C)(O)C(OC(=O)N2CCN(C3CCCCCC3)CC2)/C=C/C1C (stereo not drawn) [E7107, (8E,12E,14E)-7-((4-cycloheptylpiperazin-1-yl)carbonyl)oxy-3,6,16,21-tetrahydroxy-6,10,12,16,20-pentamethyl-18,19-epoxytricosa-8,12,14-trien-11-olide]
E7107 3 nM
  expression level of pre-mRNA of ADRM1 (untreated cells as 1): 1.8
  expression level of pre-mRNA of BZW1 (untreated cells as 1): 1.72
  expression level of pre-mRNA of CDKN1B (untreated cells as 1): 1.27
  expression level of pre-mRNA of DNAJB1 (untreated cells as 1): 2.25
  expression level of pre-mRNA of EIF4A1 (untreated cells as 1): 2.17
  expression level of pre-mRNA of FOXK2 (untreated cells as 1): 2.1
  expression level of pre-mRNA of GNB2L1 (untreated cells as 1): 2.47
  expression level of pre-mRNA of HSPA9 (untreated cells as 1): 1.87
  expression level of pre-mRNA of HSPH1 (untreated cells as 1): 1.26
  expression level of pre-mRNA of ID1 (untreated cells as 1): 3.31
  expression level of pre-mRNA of KLHL18 (untreated cells as 1): 2.36
  expression level of pre-mRNA of NUP54 (untreated cells as 1): 2.31
  expression level of pre-mRNA of RIOK3 (untreated cells as 1): 2.59
  expression level of pre-mRNA of STK17B (untreated cells as 1): 1.94
  expression level of pre-mRNA of VIL2 (untreated cells as 1): 1.27
E7107 10 nM
  expression level of pre-mRNA of ADRM1 (untreated cells as 1): 2.68
  expression level of pre-mRNA of BZW1 (untreated cells as 1): 2.34
  expression level of pre-mRNA of CDKN1B (untreated cells as 1): 2.35
  expression level of pre-mRNA of DNAJB1 (untreated cells as 1): 4.46
  expression level of pre-mRNA of EIF4A1 (untreated cells as 1): 3.64
  expression level of pre-mRNA of FOXK2 (untreated cells as 1): 2.68
  expression level of pre-mRNA of GNB2L1 (untreated cells as 1): 2.74
  expression level of pre-mRNA of HSPA9 (untreated cells as 1): 3.45
  expression level of pre-mRNA of HSPH1 (untreated cells as 1): 1.88
  expression level of pre-mRNA of ID1 (untreated cells as 1): 6
  expression level of pre-mRNA of KLHL18 (untreated cells as 1): 2.97
  expression level of pre-mRNA of NUP54 (untreated cells as 1): 2.46
  expression level of pre-mRNA of RIOK3 (untreated cells as 1): 3.57
  expression level of pre-mRNA of STK17B (untreated cells as 1): 3.44
  expression level of pre-mRNA of VIL2 (untreated cells as 1): 2.87
E7107 30 nM
  expression level of pre-mRNA of ADRM1 (untreated cells as 1): 2.59
  expression level of pre-mRNA of BZW1 (untreated cells as 1): 3.26
  expression level of pre-mRNA of CDKN1B (untreated cells as 1): 4.9
  expression level of pre-mRNA of DNAJB1 (untreated cells as 1): 7.42
  expression level of pre-mRNA of EIF4A1 (untreated cells as 1): 4.36
  expression level of pre-mRNA of FOXK2 (untreated cells as 1): 2.31
  expression level of pre-mRNA of GNB2L1 (untreated cells as 1): 2.23
  expression level of pre-mRNA of HSPA9 (untreated cells as 1): 2.33
  expression level of pre-mRNA of HSPH1 (untreated cells as 1): 2.68
  expression level of pre-mRNA of ID1 (untreated cells as 1): 10.57
  expression level of pre-mRNA of KLHL18 (untreated cells as 1): 2.6
  expression level of pre-mRNA of NUP54 (untreated cells as 1): 1.93
  expression level of pre-mRNA of RIOK3 (untreated cells as 1): 2.89
  expression level of pre-mRNA of STK17B (untreated cells as 1): 3.99
  expression level of pre-mRNA of VIL2 (untreated cells as 1): 4.89
